The numbers were not newly measured in US8338346B2, “Perfume compositions comprising functional perfume components” (The Procter & Gamble Company, priority 2008, dated 2012), which cites them from elsewhere.

The conditions of data set [1]: odor detection threshold; approximate reported values.
The conditions of data set [2]: approximate reported values; unit inferred.

For `C=C(C)C1CC=C(C)CC1` [D-Limonene, 1-methyl-4-isopropenyl-1-cyclohexene], in data set [1], the ODT was 204 ppb. As to `CC(=O)OCCCCCCC(C)C` [Iso-Nonyl Acetate, iso-nonyl acetate], the Vapor pressure in data set [2] was 0.11 mmHg. For the same compound, the ODT in data set [1] was 12 ppb. With `C=CC(C)(O)CCC=C(C)C` (centres unmarked) [Linalool, 3-hydroxy-3,7-dimethyl-1,6 octadiene], the Vapor pressure in data set [2] is 0.05 mmHg. Moreover, the ODT in data set [1] is given as 22 ppb.
